According to patent EP4458358A1, “PYRIDAZINE COMPOUNDS FOR ANTIFIBROTIC THERAPY” (Tietze Chemical Consulting UG, priority 2023, dated 2024):

What was measured:
Format in all cases: cell-based
[1] = test system: GM637; assay: ELISA of secreted pro-collagen I alpha 1 (Type I Collagen) from human dermal fibroblasts GM637
Method: (§1) Compounds reconstitution and stock solution: Prior to treatment, DMSO was diluted in PMS until 0,1% DMSO was made. Each compound was solved in 0,1% DMSO (3: 2,5 mg/mL, 1: 2.5 mg/mL, 10: 1 mg/mL, 5: 1mg/mL, 7: 0,6 mg/mL, 16: 1 mg/mL 17: 1 mg/mL, 44: 0,6 mg/mL, 36: 1mg/mL.
(§2) Next the different stock solution with 150 µg and 250 µg of each compound per 1 ml culture solution was made by adding the 0,1% DMSO compound solution in the right amount to culture solution (DMEM with 10% FCS and 1% penicillin-streptomycin).
(§3) Three different cell lines were used for the experiments. GM637 is an immortalized cell line originated from human skin fibroblasts, bought in 2001, UKE1 and […] are cell lines originated from human dermal fibroblasts (dog ear) nurtured from patients, between 60 and 80 years old being completely anonymized at the clinic for dermatology, Rostock.
(§4) The cells lines were thawed and were cultured in Dulbeco's modified Eagel's medium (DMEM, Gibcon, USA) supplemented with 10% fetal bovine serum (FBS, Gibco, Germany) and 1% penicillin-streptomycin (PS, Gibco, USA) at 37 °C in a humidified atmosphere with 5% CO2 until a sufficient number of cells were culture in T75 culture bottles. After reaching a confluence of 80% to 90%, the cells were separated using trypsin and counted. Next 100.000 cells were planted in each well of a 6 well plate in replicates, washed and the DMEM solution with 150 µg and 250 µg/ml substance/DMEM and DMEM with no substance as control was added.
(§5) After 48h and after 72h 100 µl supernatant of each well was taken, labelled and frozen at -20° degree Celsius. Prior to perform ELISA the medium was depending on the cell line diluted 1:50 or 1:100 with PBS, otherwise the concentration of collagen fibers was too high to be measured.
(§6) The media containing the secretion of the different human dermal fibroblasts GM637, UKE1, and HRO159N were collected after 48h and 72h treatment. Secretion of pro-collagen 1 was assessed with human pro-collagen I alpha 1 DuoSet ELISA (R&D systems, USA) To prepare the Elisa plate, Human pro-Collagen I a capture antibody was diluted in ELISA plate-coating buffer at 4µg/mL working concentration. 100 µl of diluted Capture antibody was added to 96-well microplates and incubated over night at room temperature. After three times washing with Wash Buffer, microplates were blocked by adding 300 µl of Reagent Diluent for 1 hour at room temperature. To proceed the ELISA Human pro-collagen I α1 Standards were diluted in Reagent Diluent (range between 31,3 pg/mL - 2000 pg/mL) and 100 µl of standards or conditioned mediums were added to designated wells. Microplates were incubated at room temperature for 2 hours. Human Pro-collagen I α1 Detection Antibody was prepared in Reagent Diluent at […] working concentration and 100 µl of diluted Detection Antibody was applied for 2 hours at room temperature after extensive washing. Then, working solution of Streptavidin-HRP with Reagent Diluent was prepared by diluting 1:40 and added into each well. After 20 minutes at room temperature incubation, microplates were washed and applied with 100 µl of Substrate Solution for 20 minutes followed by Stop Solution after washing. Finally, signals were measured at 450 nm absorbance by PHomo Microplate Reader (Autobio, China) The amount of pro-collagen 1 was quantified by extrapolating the signal into a linear range of a pro-collagen 1 standard curve. Screening compounds were typically tested at concentration of 150 and 250 µg/mL. The dose response data for each compound and the different cell lines were obtained by nonlinear regression analysis using Prism 9 software (GraphPad, La Jolla, USA).

[2] = test system: UKE1; assay: ELISA of secreted pro-collagen I alpha 1 (Type I Collagen) from human dermal fibroblasts UKE1
Method: as §1, §2, §3, §4, §5, §6

[3] = test system: HRO159N; assay: ELISA of secreted pro-collagen I alpha 1 (Type I Collagen) from human dermal fibroblasts HRO159N; conditions: 250 µg
Method: as §1, §2, §3, §4, §5, §6

[4] = test system: MRCVI; assay: ELISA of secreted pro-collagen I alpha 1 (Type I Collagen) from human lung fibroblast MRCVI
Method: as §1, §2
As cell line MRCV1 was used, which is an immortalized cell line originated from human lung fibroblast, bought in 2001.
as §4, with “cell line was” for “cells lines were”, “and” for “and were”
as §5
The medium containing the secretion of the human lung fibroblast MRCVI was collected after 48h and 72h treatment. Secretion of pro-collagen 1 was assessed with human pro-collagen I alpha 1 DuoSet ELISA (R&D systems, USA) To prepare the Elisa plate, Human pro-Collagen I a capture antibody was diluted in ELISA plate-coating buffer at 4µg/mL working concentration. 100 µl of diluted Capture antibody was added to 96-well microplates and incubated over night at room temperature. After three times washing with Wash Buffer, microplates were blocked by adding 300 µl of Reagent Diluent for 1 hour at room temperature. To proceed the ELISA Human pro-collagen I α1 Standards were diluted in Reagent Diluent (range between 31,3 pg/mL - 2000 pg/mL) and 100 µl of standards or conditioned mediums were added to designated wells. Microplates were incubated at room temperature for 2 hours. Human Pro-collagen I α1 Detection Antibody was prepared in Reagent Diluent at […] working concentration and 100 µl of diluted Detection Antibody was applied for 2 hours at room temperature after extensive washing. Then, working solution of Streptavidin-HRP with Reagent Diluent was prepared by diluting 1:40 and added into each well. After 20 minutes at room temperature incubation, microplates were washed and applied with 100 µl of Substrate Solution for 20 minutes followed by Stop Solution after washing. Finally, signals were measured at 450 nm absorbance by PHomo Microplate Reader (Autobio, China) The amount of pro-collagen 1 was quantified by extrapolating the signal into a linear range of a pro-collagen 1 standard curve. Screening compounds were typically tested at concentration of 150 and 250 µg/mL. The dose response data for each compound and the different cell lines were obtained by nonlinear regression analysis using Prism 9 software (GraphPad, La Jolla, USA).

Compound | collagen reduction percentage in comparison to the standard (100 %) ([1]; 48h, 150 µg) [%] | collagen reduction percentage in comparison to the standard (100 %) ([1]; 48h, 250 µg) [%] | collagen reduction percentage in comparison to the standard (100 %) ([1]; 72 h, 150 µg) [%] | collagen reduction percentage in comparison to the standard (100 %) ([1]; 72 h, 250 µg) [%] | collagen reduction percentage in comparison to the standard (100 %) ([2]; 48h, 150 µg) [%] | collagen reduction percentage in comparison to the standard (100 %) ([2]; 48h, 250 µg) [%] | collagen reduction percentage in comparison to the standard (100 %) ([2]; 72 h, 150 µg) [%] | collagen reduction percentage in comparison to the standard (100 %) ([2]; 72 h, 250 µg) [%] | collagen reduction percentage in comparison to the standard (100 %) ([3]; 48h) [%] | collagen reduction percentage in comparison to the standard (100 %) ([3]; 72 h) [%] | collagen reduction percentage in comparison to the standard (100 %) ([4]; 48h, 150 µg) [%] | collagen reduction percentage in comparison to the standard (100 %) ([4]; 48h, 250 µg) [%] | collagen reduction percentage in comparison to the standard (100 %) ([4]; 72 h, 150 µg) [%] | collagen reduction percentage in comparison to the standard (100 %) ([4]; 72 h, 250 µg) [%]
CC(C)Oc1nn2nnnc2c2c(Cl)cccc12 [Compound 44, 10-chloro-6-isopropoxytetrazolo[5,1-a]phthalazine] | 122 | 89 | 61 | 65 | 122 | 89 | 61 | 65 | 72 | 79 | – | – | – | –
FC(F)(F)c1nnc2c3ccccc3cnn12 [Compound 5, 3-Trifluoromethyl-1,2,4-triazolo[3,4-a]phthalazine] | 114 | 89 | 70 | 105 | 107 | 99 | 94 | 62 | – | – | 97 | 107 | 56 | 108
c1ccc2c(c1)cnn1nnnc21 [Compound 1, Tetrazolor5,1-alphthalazine] | 127 | 77 | 95 | 92 | 70 | 85 | 74 | 68 | 57 | 72 | 87 | 78 | 74 | 61
[2H]C([2H])([2H])c1nnc2c3ccccc3cnn12 [Compound 7, 3-D3-Methyl-1,2,4-triazolo[3,4-a]phthalazine] | 101 | 75 | 43 | 30 | 79 | 54 | 44 | 47 | 43 | 33 | 19 | 9 | 14 | 3
Cc1nnc2c3cscc3cnn12 [Compound 16, 3-Methylthieno[3,4-d][1,2,4]triazolo[4,3-b]pyridazine] | 79 | 62 | 86 | 55 | 117 | 99 | 82 | 35 | 79 | 48 | 72 | 43 | 82 | 35
c1nn2nnnc2c2cscc12 [Compound 17, Tetrazolo[1,5-b]thieno[3,4-d]pyridazine] | 90 | 62 | 103 | 55 | 102 | 86 | 76 | 59 | 34 | 4 | 33 | 16 | 35 | 11
Cc1nnc2c3ccc(C(F)(F)F)cc3cnn12 [Compound 36, 3-Methyl-8-(trifluoromethyl)-[1,2,4]triazolo[3,4-a]phthalazine] | – | – | – | – | – | – | – | – | – | – | 64 | 68 | 36 | 22
c1ccc2c(c1)cnn1cnnc21 [Compound 10, 1,2,4-Triazolo[3,4-a]phthalazine] | – | – | – | – | – | – | – | – | – | – | 67 | 52 | 48 | 25
